Entries after “also recorded” stand apart in the source; their conditions may differ.

In data set [1] the test system is COS-7 cell-line. As to the kind of experiment: Lipofection (luciferase reporter) transfection efficiency in COS-7 cells. The format is cell-based, African green monkey. From the text:
Screening / Lipofection studies: For a broad and reproducible testing the transfection properties of systematically varied new cationic lipids, we recently have developed an fully automated high throughput system ([…]. et al., J. Biomol. Screening (2001)). This system, which comprises the entire lipofection process from liposome formation to reporter gene assay, allows to identify candidate cationic lipids and to develop suitable lipofection reagents and protocols based on those lipids. Automation of this process was necessary, because manually testing of various cationic lipids or lipid mixtures is extremely labor intensive and high reproducibility can not be guarantied. Goal of this first step was to find the cationic lipid with the best hydrocarbon chain composition for the development of suitable lipofection reagents and protocols. All lipids with different hydrocarbon chains (lipids 1-16, table 1) which are R-configurated and have chloride as counter ion were tested using a standard protocol: From each lipid, eight different lipoplexes containing equimolar amounts of the helper lipid DOPE were formed using different DNA:lipid-charge ratios from 1:1 - 1:15, resulting in a lipofection profile for each lipid (fig. 1). The COS-7 cell-line was used for this first lipofection study because COS-7 is easy to transfect and differences between the lipids are easy to identify. For comparison, the transfection efficiency of the well know cationic lipid DOTAP at its best lipid/DNA charge ration of 2.5 was also determined in each run. Cell culture: The initial transfection screening was carried out using COS-7 cells. The cells were maintained in 96-well culture plates (Greiner, Frickenhausen, Germany) in 200 μl EMEM/10 % FCS/1 % Penicillin-streptomycin in a humidified atmosphere at 37 °C/5 % CO2. […] For the subsequent quantification of transfection efficiency (part 2) a reporter plasmid carrying the firefly luciferase gene under the control of the CMV promoter is used to form lipoplexes. […]

The test system of data set [2] is mamma carcinoma cell line MDA-MB-468. As to the kind of experiment: Lipofection transfection efficiency in MDA-MB-468 cells. The data set is classed as cell-based.
Data set [3] relates to mamma carcinoma cell line MCF-7. As to the kind of experiment: Lipofection transfection efficiency in MCF-7 cells. The format is cell-based.
The next data set relates to primary dendritic cells. As to the kind of experiment: Lipofection transfection efficiency in primary dendritic cells. The data set is classed as cell-based, human.
The test system of data set [4] is polarized cell line MDCK-C7.
Data set [5] in a line: Cytotoxicity of lipoplexes (protein content of transfected versus non-transfected cells). The format is cell-based, African green monkey. The conditions noted are these: monkey, cos-7 cells; equimolar DOPE, COS-7; read-out: vitality of the cells at maximum transfection efficiency. The protocol:
(§1) Goal of this first step was to find the cationic lipid with the best hydrocarbon chain composition for the development of suitable lipofection reagents and protocols. All lipids with different hydrocarbon chains (lipids 1-16, table 1) which are R-configurated and have chloride as counter ion were tested using a standard protocol: From each lipid, […] DNA:lipid-charge ratios from 1:1 - 1:15, resulting in a lipofection profile for each lipid (fig. 1). The COS-7 cell-line was used for this first lipofection study because COS-7 is easy to transfect and differences between the lipids are easy to identify. For comparison, the transfection efficiency of the well know cationic lipid DOTAP at its best lipid/DNA charge ration of 2.5 was also determined in each run. Part 2 (Transfection assays): After lipoplex formation, the robot took the cell culture microtiter plates from an incubator and removed the lid from the plates. Immediately prior to transfection, 100 µl of the culture medium were removed and the lipoplexes were dispensed into the wells (triplicates). The lids were replaced and the MTP were returned to the incubator. […] Assay specific standards and controls were added to the microplates, and luciferase activity and protein content of the lysates were measured. Transfection efficiencies were calculated by dividing luciferase activity by protein content.

The test system of data set [6] is COS-7 cell-line. Described as above. The note with it: Chol as helper lipid, ratio 0.7, chloride. The data set is classed as cell-based, African green monkey. The protocol:
as §1

The subject of data set [7] is COS-7 cell-line. As to the kind of experiment: Lipofection (luciferase reporter) transfection efficiency in COS-7 cells. The data set is classed as cell-based, African green monkey. The source holds these as a separate data set.
Setting [8] is: racemic, chloride, 70 mol-% cholesterol, MDA-MB-468.
Where [9] appears, read: racemic, chloride, 70 mol-% cholesterol.

`CCCCCCCC/C=C\CCCCCCCC(=O)OCC(C[N+](C)(C)C)OC(=O)CCCCCCC/C=C\CCCCCCCC` (stereo not shown) [DOTAP, N-(1(2,-dioleyoyl)propyl)-N,N,N-trimethylammonium chloride, reference compound]: the transfection efficiency in the data set on COS-7 cell-line [1] (COS-7, lower line) is recorded as 466,72 +/- 320,44 (11) rlu/µg protein/ml; in data set [2] (MDA-MB468, lower line) it was 92,58 +/- 82,86 (9) rlu/µg protein/ml; in data set [3] (lower line), 101,65 +/- 93,42 (7) rlu/µg protein/ml; with primary dendritic cells (DC 5day, lower line), 3,18 +/- 5,87 (3) rlu/µg protein/ml; in data set [4], 26,64 +/- 3,33 (2) rlu/µg protein/ml.

For the molecule `CCCCCCCCCCCCCCN(CCCCCCCCCCCCCC)CC(O)CO` (stereo not shown) [KL-14-analog which was not methylated], the transfection result with COS-7 cell-line [1] (not methylated analog) was “did not transfect at all”.

With `CCCCCCCCCCCCCC[N+](C)(CCCCCCCCCCCCCC)CC(O)CO` (stereo not shown) [KL-14], the “transfection efficiency (comparison within the library)” value in the data set on COS-7 cell-line [1] (R-configurated, chloride, equimolar DOPE, COS-7) is reported as “most effective; also recorded: highest transfection efficiency”. The “transfection efficiency, DOPE-formulation compared with cholesterol mixture” value in data set [2] (equimolar mixture with DOPE, MDA-MB-468) is “lower”; in data set [3] (equimolar mixture with DOPE), “lower”. Besides, the “factor by which transfection efficiency is reduced in comparison with COS-7-cells” value is listed as “about 12” in data set [2] (setting [8]); “about 12” in data set [3] (setting [9]); “about 600” in the data set on primary dendritic cells (racemic, chloride, 70 mol-% cholesterol, dendritic cell); “about 100” in data set [4]. Besides, the “transfection efficiency, times higher than for DOTAP” value in data set [2] (setting [8]) and in data set [3] (setting [9]) was 8 each time. Further, the “transfection efficiency, fold increase over DOTAP” value is reported as 1.5-2 with primary dendritic cells (racemic, chloride, 70 mol-% cholesterol, dendritic cells) and 1.5-2 in data set [4]. In addition, the viability in data set [5] was roughly 70%. Besides, the “toxicity, R- versus S-configuration” value with COS-7 cell-line [6] is recorded as “statistically similar”. Moreover, the “transfection efficiency, R- versus S-configuration” value in the data set with COS-7 cell-line [7] (Chol as helper lipid, ratio 0.7, chloride) was “statistically similar”. In the data set with COS-7 cell-line [7] (Cholesterol as helper lipid), the “Chol/KL-14 ratio giving highest transfection efficiency” value is reported as 0.5-0.7. Also, the transfection efficiency entry in the data set on COS-7 cell-line [7] (Cholesterol as helper lipid, Chol/KL-14 ratios 0.3 - 1.2, compared with DOPE mixtures) is “always higher than for the mixtures of KL-14 with DOPE”; with COS-7 cell-line [7] (DOPE as helper lipid, DOPE/KL-14 ratio 0.3 to 1.2), “very high”. Further, in the data set with COS-7 cell-line [7] (racemic, counter ion acetate, cholesterol/KL-14 ratio 0.7), the “transfection efficiency as % of the chloride values” is on record as 57%. Further, in the data set on COS-7 cell-line [7] (racemic, counter ion chloride, cholesterol/KL-14 ratio 0.7), the “transfection efficiency (comparison of counter ions)” value is given as “highest transfection efficiency”. The “transfection efficiency as % of the values found for chloride” value in the data set on COS-7 cell-line [7] (racemic, counter ion methylsulfate, cholesterol/KL-14 ratio 0.7) was 70-75%; in the data set on COS-7 cell-line [7] (racemic, counter ion sulfate, cholesterol/KL-14 ratio 0.7), 70-75%. The “transfection efficiency as % of that of the standard lipid DOTAP” value with COS-7 cell-line [7] (without helper lipids) is reported as 70%.

The values are drawn from patent EP1300161A1, “Cationic lipids suitable for gene transfer” (rubitec Gesellschaft für Innovation und Technologie der …, priority 2001, dated 2003).
